# Assay results published in patent publication US20250262167A1, “COMPOUNDS, TARGETS AND PATHWAYS FOR MACROPHAGE MODULATION” (Massachusetts Institute of Technology, priority 2020, published 2025).
# Where two headings read alike, the source gives them in different places.
# Tests used:
# [1] = system: luciferase-expressing human B lymphoma cells (GMB); assay: Human B lymphoma (GMB-luc) model in NSG mice; type: in vivo, mouse
# Procedure: NSG mice were grafted with 1×10^7 GMB-luc cells and dosed twice at 14 and 21 days later with 0.5 mg/kg Rituximab (Ritu) and/or 300 mg/kg thiostrepton (Thio). Tumor burden was monitored (FIG. 18A) and quantified (FIG. 18B) by imaging the luciferase activity in vivo (n=5˜6 mice per group). Data are shown as mean±s.e.m. At day 28 post tumor engraftment, bone marrow cells were analyzed by flow cytometry (FIG. 18C). Shown are representative F4/80 versus CD11b staining profiles gating on CD45^+ cells (top panel), Ly6C versus Ly6G staining profiles gating on F4/80^+CD11b^+ cells (bottom panel). MHCII histograms gating on macrophages from FIG. 18C. […] Data shown are mean±s.d. * P<0.05, ** P<0.01 and *** P<0.001, by T-test.
# For the melanoma model, an inoculum of 1×10^6 B16F10 tumor cells was injected subcutaneously on the flank of 8- to 10-week-old male B6 mice in […] sterile PBS. Six days following tumor inoculation, mice were randomized into 4 treatment groups including control (PBS or DMSO), tumor-targeting antibody TA99, compound, compound plus TA99. TA99 was administered at […] per dose intraperitoneally (I.P.). The compound was administrated at the indicated dosage by either I.P. or paratumor injection subcutaneously (S.C.). All mice were dosed at day 6 and day 12 post tumor inoculation for a total of 2 treatments. Tumor size was measured as an area (longest dimension×perpendicular dimension) at day 6, day 12 and day 18 post tumor inoculation. Mice were euthanized for analysis at day 18 post tumor inoculation. For the lymphoma model, 1×10^7 GMB cells were injected through tail intravenously in 100 μL sterile PBS into 10- to 12-week-old male NSG mice. Mice were treated two weeks post tumor cell engraftment. Tumor-targeting antibody Rituxumab (InvivoGen) was administered at 10 mg/kg intraperitoneally. The compound was administrated I.P. at the indicated dosage. All mice were dosed at week 2 and week 3 post tumor injection for a total of 2 treatments. […]
# [2] = Macrophage numbers and gut bacterial counts in non-tumor bearing mice; type: in vivo, mouse
# Procedure: (n=3). Shown are representative F4/80 versus CD11b staining profiles gating on CD45+ cells. I.P.: intraperitoneal injection; S.C.: paratumor subcutaneous injection. […] Data shown are mean±s.d. n.s., not significant by T-test.
# Next, we examined whether thiostrepon has anti-tumor effect in vivo through activating macrophages. B16F10 melanoma cells were injected subcutaneously into syngeneic C57BL/6 mice. 6 and 12 days later, tumor-bearing mice were treated with either vehicle (DMSO), melanoma specific antibody TA99, thiostrepton, or combination of TA99 and thiostrepton by intraperitoneal injection (I.P.). […] Since thiostrepton inhibits cell proliferation and is an antibiotic, to exclude its systematic effects on immune cells and on gut microbiome, tumor-bearing mice were treated by para-tumor subcutaneous injection (S.C.) with a lower dose of thiostrepton (20 mg/kg). […] Consistently, more abundant macrophages were stained positive for F4/80 by immunochemistry in tumor sections from mice treated with thiostrepton or thiostrepton plus TA99 than mice treated with vehicle or T99 (FIG. 6E).
# Procedure for c-Myc: Transfected cells were not treated or treated with DPI (50 and 500 nM) for 6 hrs and luciferase activities were measured. Data are presented as the mean±sd (n=5). P values were calculated by student t-test. * P<0.05, ** P<0.01, *** P<0.001, **** P<0.0001.
# The c-Myc activity was assessed using the Myc Reporter kit (BPS Biosciences) and the Dual-Luciferase Reporter System (Promega) according to the manufacturers' instructions. Briefly, 100 μL (1.5×10^5 cells/mL) control and Kupffer cells were seeded into 96-well plates. After overnight incubation, when cells reached ˜50% confluency, 1 μL of Reporter A (60 ng/μL) in the Myc Reporter kit was transfected into cells using Turbofectin 8.0. After 48 hours, cells were lysed in 25 μL Passive Lysis Buffer (provided in the Dual-Luciferase Reporter kit). 20 μL of cell lysate was transferred to 96-well plates and placed in a 96-well microplate luminometer (GloMax-Multi, Promega). 100 μL Luciferase Assay Reagent II and 100 μL Stop & Glo Reagent (both provided in the Dual-Luciferase Reporter kit) were sequentially injected, and firefly and Renilla luciferase activities were automatically measured. c-Myc activities were determined by the ratios of firefly to Renilla luciferase activities.
smiles,measurement,setting,value
c1ccc2c(c1)[I+]c1ccccc1-2 [Diphenyleneiodonium chloride],c-Myc luciferase activity,c-Myc; Pkm−/− ImKCs,not
same,c-Myc luciferase activity,"c-Myc; parental ImKCs, 50 and 500 nM, 6 hrs",induced
C=C(NC(=O)C(=C)NC(=O)c1csc(C2=N[C@@H]3c4csc(n4)[C@H]4NC(=O)c5csc(n5)[C@H]([C@](C)(O)[C@@H](C)O)NC(=O)[C@H]5CSC(=N5)/C(=C/C)NC(=O)[C@H]([C@@H](C)O)NC(=O)c5csc(n5)[C@]3(CC2)NC(=O)[C@H](C)NC(=O)C(=C)NC(=O)[C@H](C)NC(=O)[C@H]([C@@H](C)CC)N[C@@H]2C=Cc3c([C@H](C)O)cc(nc3[C@H]2O)C(=O)O[C@@H]4C)n1)C(N)=O [Thiostrepton],tumor burden in the bone marrow,"[1]; alone, 300 mg/kg, luciferase imaging",significantly reduced
same,"tumor burden in the bone marrow, with rituximab","[1]; together with rituximab, luciferase imaging",significantly reduced
same,F4/80+CD11b+ macrophages with higher MHCII in bone marrow,[1]; vs vehicle or rituximab,higher percentages
same,total bacterial counts in the gut,[2]; both dosing strategies,did not change
same,macrophages in the spleen and bone marrow,[2]; intraperitoneal administration,increased numbers
same,macrophage numbers,[2]; subcutaneous administration,did not have significant effects
